From US9150577B2, “Heterocyclic compounds containing an indole core” (Boehringer Ingelheim International GmbH, priority 2009, dated 2015)

Target: Human RSK2 (Homo sapiens (Human), UniProt P51812)
Assay: Human RSK2 assay (Kinase Glo Plus, residual ATP);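 also: recombinant human RSK2 phosphorylating a substrate peptide, 90 min at 28 °C, leftover ATP read by luminescence, RLU scaled between no-kinase background and uninhibited kinase controls, 4-parameter fit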
Type: biochemical

Chain of Human RSK2 (P51812 whole entry): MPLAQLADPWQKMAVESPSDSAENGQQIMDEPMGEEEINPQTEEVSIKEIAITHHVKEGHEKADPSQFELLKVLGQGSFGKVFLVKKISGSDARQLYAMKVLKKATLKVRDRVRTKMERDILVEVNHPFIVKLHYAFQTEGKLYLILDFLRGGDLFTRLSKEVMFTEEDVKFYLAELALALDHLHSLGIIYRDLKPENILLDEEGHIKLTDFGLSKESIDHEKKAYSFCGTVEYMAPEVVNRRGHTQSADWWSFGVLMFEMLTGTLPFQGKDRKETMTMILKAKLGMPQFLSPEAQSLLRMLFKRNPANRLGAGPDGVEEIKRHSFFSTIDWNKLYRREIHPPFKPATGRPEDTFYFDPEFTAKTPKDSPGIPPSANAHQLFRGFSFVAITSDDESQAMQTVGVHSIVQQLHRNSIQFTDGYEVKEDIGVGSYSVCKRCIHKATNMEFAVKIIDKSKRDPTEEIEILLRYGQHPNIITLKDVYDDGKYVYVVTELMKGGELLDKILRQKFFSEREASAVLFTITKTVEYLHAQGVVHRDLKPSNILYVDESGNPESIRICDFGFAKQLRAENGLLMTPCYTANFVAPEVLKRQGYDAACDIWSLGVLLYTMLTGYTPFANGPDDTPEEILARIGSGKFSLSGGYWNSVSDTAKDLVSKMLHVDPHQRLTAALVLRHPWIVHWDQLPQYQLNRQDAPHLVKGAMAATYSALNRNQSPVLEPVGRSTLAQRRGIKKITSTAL

SMILES | IC50 [nM]
O=C(Nc1cccc(Cl)c1)c1ccc2cc3n(c2c1)CCCNC3=O [Example 1, N-(3-chlorophenyl)-1-oxo-2,3,4,5-tetrahydro-1H-[1,4]diazepino[1,2-a]indole-8-carboxamide] | 270
Cc1cc(NC(=O)c2ccc3cc4n(c3c2)CCCNC4=O)no1 [Example 2, N-(5-methyl-1,2-oxazol-3-yl)-1-oxo-2,3,4,5-tetrahydro-1H-[1,4]diazepino[1,2-a]indole-8-carboxamide] | 30
CC(C)(C)c1cc(NC(=O)c2ccc3cc4n(c3c2)CCCNC4=O)sn1 [Example 3, N-(3-tert-butyl-1,2-thiazol-5-yl)-1-oxo-2,3,4,5-tetrahydro-1H-[1,4]diazepino[1,2-a]indole-8-carboxamide] | 240
O=C(Nc1ccc(Cl)cc1)c1ccc2cc3n(c2c1)CCCNC3=O [Example 4, N-(4-chlorophenyl)-1-oxo-2,3,4,5-tetrahydro-1H-[1,4]diazepino[1,2-a]indole-8-carboxamide] | 190
O=C(Nc1ccc2ccccc2n1)c1ccc2cc3n(c2c1)CCCNC3=O [Example 5, 1-oxo-N-(quinolin-2-yl)-2,3,4,5-tetrahydro-1H-[1,4]diazepino[1,2-a]indole-8-carboxamide] | 70
N#Cc1cccc(NC(=O)c2ccc3cc4n(c3c2)CCCNC4=O)c1 [Example 6, N-(3-cyanophenyl)-1-oxo-2,3,4,5-tetrahydro-1H-[1,4]diazepino[1,2-a]indole-8-carboxamide] | 140
O=C(Nc1cccc(N2CCOCC2)c1)c1ccc2cc3n(c2c1)CCCNC3=O [Example 7, N-[3-(morpholin-4-yl)phenyl]-1-oxo-2,3,4,5-tetrahydro-1H-[1,4]diazepino[1,2-a]indole-8-carboxamide] | 60
CC1(C)CNC(=O)c2cc3ccc(C(=O)Nc4cccnc4)cc3n2C1 [Example 9, 4,4-dimethyl-1-oxo-N-(pyridin-3-yl)-2,3,4,5-tetrahydro-1H-[1,4]diazepino[1,2-a]indole-8-carboxamide] | 4600
CC1CCNC(=O)c2cc3ccc(C(=O)Nc4cccnc4)cc3n21 (stereo not shown) [Example 10, 5-methyl-1-oxo-N-(pyridin-3-yl)-2,3,4,5-tetrahydro-1H-[1,4]diazepino[1,2-a]indole-8-carboxamide] | 41
Cn1ccc(NC(=O)c2ccc3cc4n(c3c2)CCCNC4=O)n1 [Example 11, N-(1-methyl-1H-pyrazol-3-yl)-1-oxo-2,3,4,5-tetrahydro-1H-[1,4]diazepino[1,2-a]indole-8-carboxamide] | 540
O=C(Nc1ccn(Cc2ccc(F)cc2)n1)c1ccc2cc3n(c2c1)CCCNC3=O [Example 12, N-[1-(4-fluorobenzyl)-1H-pyrazol-3-yl]-1-oxo-2,3,4,5-tetrahydro-1H-[1,4]diazepino[1,2-a]indole-8-carboxamide] | 220
CC(C)n1ccc(NC(=O)c2ccc3cc4n(c3c2)CCCNC4=O)n1 [Example 13, 1-oxo-N-[1-(propan-2-yl)-1H-pyrazol-3-yl]-2,3,4,5-tetrahydro-1H-[1,4]diazepino[1,2-a]indole-8-carboxamide] | 1600
O=C(Nc1ccn(-c2ccccc2)n1)c1ccc2cc3n(c2c1)CCCNC3=O [Example 14, 1-oxo-N-(1-phenyl-1H-pyrazol-3-yl)-2,3,4,5-tetrahydro-1H-[1,4]diazepino[1,2-a]indole-8-carboxamide] | 108
O=C(Nc1cn[nH]c1)c1ccc2cc3n(c2c1)CCCNC3=O [Example 15, 1-oxo-N-(1H-pyrazol-4-yl)-2,3,4,5-tetrahydro-1H-[1,4]diazepino[1,2-a]indole-8-carboxamide] | 43
CC1(C)CNC(=O)c2cc3ccc(C(=O)Nc4cn[nH]c4)cc3n2C1 [Example 16, 4,4-dimethyl-1-oxo-N-(1H-pyrazol-4-yl)-2,3,4,5-tetrahydro-1H-[1,4]diazepino[1,2-a]indole-8-carboxamide] | 2500
CC1CNC(=O)c2cc3ccc(C(=O)Nc4cn[nH]c4)cc3n2C1 (stereo not shown) [Example 17, 4-methyl-1-oxo-N-(1H-pyrazol-4-yl)-2,3,4,5-tetrahydro-1H-[1,4]diazepino[1,2-a]indole-8-carboxamide] | 145

More lines, now with the values ahead:

IC50 [nM] | SMILES
8.1 | CC(C)n1ncc2cc(NC(=O)c3ccc4cc5n(c4c3)[C@@H](C)[C@@H](C)NC5=O)cnc21 (relative stereo) [Example 18, cis-3,4-dimethyl-1-oxo-N-[1-(propan-2-yl)-1H-pyrazolo[3,4-b]pyridin-5-yl]-1,2,3,4-tetrahydropyrazino[1,2-a]indole-7-carboxamide]
4.3 | C[C@H]1NC(=O)c2cc3ccc(C(=O)Nc4cnn(C)c4)cc3n2[C@H]1C (relative stereo) [Example 21, cis-3,4-dimethyl-N-(1-methyl-1H-pyrazol-4-yl)-1-oxo-1,2,3,4-tetrahydropyrazino[1,2-a]indole-7-carboxamide]
1.9 | C[C@H]1NC(=O)c2cc3ccc(C(=O)Nc4cnn(Cc5ccccc5)c4)cc3n2[C@H]1C (relative stereo) [Example 29, N-(1-benzyl-1H-pyrazol-4-yl)-cis-3,4-dimethyl-1-oxo-1,2,3,4-tetrahydropyrazino[1,2-a]indole-7-carboxamide]
10 | C[C@@H]1NC(=O)c2cc3ccc(C(=O)Nc4cnn(Cc5ccccc5)c4)cc3n2[C@H]1C (relative stereo) [Example 30, N-(1-benzyl-1H-pyrazol-4-yl)-trans-3,4-dimethyl-1-oxo-1,2,3,4-tetrahydropyrazino[1,2-a]indole-7-carboxamide]
3.4 | CC(C)n1c(NC(=O)c2ccc3cc4n(c3c2)[C@@H](C)[C@@H](C)NC4=O)nc2ccccc21 (relative stereo) [Example 67, cis-3,4-dimethyl-1-oxo-N-[1-(propan-2-yl)-1H-benzimidazol-2-yl]-1,2,3,4-tetrahydropyrazino[1,2-a]indole-7-carboxamide]
1.8 | CC(C)n1c(NC(=O)c2ccc3cc4n(c3c2)[C@@H](C)[C@@H](C)CNC4=O)nc2ccccc21 (relative stereo) [Example 70, cis-4,5-dimethyl-1-oxo-N-[1-(propan-2-yl)-1H-benzimidazol-2-yl]-2,3,4,5-tetrahydro-1H-[1,4]diazepino[1,2-a]indole-8-carboxamide]
0.64 | CCn1c(NC(=O)c2ccc3cc4n(c3c2)[C@@H](C)[C@@H](C)NC4=O)nc2ccccc21 (relative stereo) [Example 79, N-(1-ethyl-1H-benzimidazol-2-yl)-cis-3,4-dimethyl-1-oxo-1,2,3,4-tetrahydropyrazino[1,2-a]indole-7-carboxamide]
5 | CCn1c(NC(=O)c2ccc3cc4n(c3c2)[C@@H](C)[C@H](C)NC4=O)nc2ccccc21 (relative stereo) [Example 80, N-(1-ethyl-1H-benzimidazol-2-yl)-trans-3,4-dimethyl-1-oxo-1,2,3,4-tetrahydropyrazino[1,2-a]indole-7-carboxamide]
2.1 | C[C@H]1NC(=O)c2cc3ccc(C(=O)Nc4nc5ccccc5n4CCCN(C)C)cc3n2[C@H]1C (relative stereo) [Example 90, N-{1-[3-(dimethylamino)propyl]-1H-benzimidazol-2-yl}-cis-3,4-dimethyl-1-oxo-1,2,3,4-tetrahydropyrazino[1,2-a]indole-7-carboxamide]
8.5 | C[C@@H]1NC(=O)c2cc3ccc(C(=O)Nc4nc5ccccc5n4CCCN(C)C)cc3n2[C@H]1C (relative stereo) [Example 91, N-{1-[3-(dimethylamino)propyl]-1H-benzimidazol-2-yl}-trans-3,4-dimethyl-1-oxo-1,2,3,4-tetrahydropyrazino[1,2-a]indole-7-carboxamide]
2 | C[C@H]1CNC(=O)c2cc3ccc(C(=O)Nc4nc5ccccc5n4CCCN(C)C)cc3n2[C@H]1C (relative stereo) [Example 92, N-{1-[3-(dimethylamino)propyl]-1H-benzimidazol-2-yl}-cis-4,5-dimethyl-1-oxo-2,3,4,5-tetrahydro-1H-[1,4]diazepino[1,2-a]indole-8-carboxamide]
9.3 | C[C@H]1CNC(=O)c2cc3ccc(C(=O)Nc4cnn(Cc5ccccc5)c4)cc3n2[C@H]1C (relative stereo) [Example 136, N-(1-benzyl-1H-pyrazol-4-yl)-cis-4,5-dimethyl-1-oxo-2,3,4,5-tetrahydro-1H-[1,4]diazepino[1,2-a]indole-8-carboxamide]
240 | C[C@H]1CNC(=O)c2cc3ccc(C(=O)Nc4cccnc4)cc3n2[C@H]1C (relative stereo) [Example 150, Cis-4,5-dimethyl-1-oxo-N-(pyridin-3-yl)-2,3,4,5-tetrahydro-1H-[1,4]diazepino[1,2-a]indole-8-carboxamide]
1100 | C[C@@H]1CNC(=O)c2cc3ccc(C(=O)Nc4cccnc4)cc3n2[C@H]1C (relative stereo) [Example 151, Trans-4,5-dimethyl-1-oxo-N-(pyridin-3-yl)-2,3,4,5-tetrahydro-1H-[1,4]diazepino[1,2-a]indole-8-carboxamide]
160 | Cc1cc(NC(=O)c2ccc3cc4n(c3c2)[C@@H](C)[C@H](C)NC4=O)no1 (relative stereo) [Example 168, Trans-3,4-dimethyl-N-(5-methyl-1,2-oxazol-3-yl)-1-oxo-1,2,3,4-tetrahydropyrazino[1,2-a]indole-7-carboxamide]
570 | Cc1cc(NC(=O)c2ccc3cc4n(c3c2)[C@@H](C)[C@H](C)CNC4=O)no1 (relative stereo) [Example 169, Trans-4,5-dimethyl-N-(5-methyl-1,2-oxazol-3-yl)-1-oxo-2,3,4,5-tetrahydro-1H-[1,4]diazepino[1,2-a]indole-8-carboxamide]
45 | C[C@H]1NC(=O)c2cc3ccc(C(=O)Nc4cccnc4)cc3n2[C@H]1C (relative stereo) [Example 179, Cis-3,4-dimethyl-1-oxo-N-(pyridin-3-yl)-1,2,3,4-tetrahydropyrazino[1,2-a]indole-7-carboxamide]
895 | C[C@@H]1NC(=O)c2cc3ccc(C(=O)Nc4cccnc4)cc3n2[C@H]1C (relative stereo) [Example 180, Trans-3,4-dimethyl-1-oxo-N-(pyridin-3-yl)-1,2,3,4-tetrahydropyrazino[1,2-a]indole-7-carboxamide]
